Data on 23 compounds can be found in ChEMBL document CHEMBL1131870, “The inhibition of human cytomegalovirus (hCMV) protease by hydroxylamine derivatives” (Bioorg Med Chem Lett, 1999).

pIC50: −log10 of the molar value.

This assay concerns the target T1, Capsid scaffolding protein (Human cytomegalovirus (strain AD169) (HHV-5) (Human herpesvirus 5), UniProt P16753).
T1 sequence (P16753 whole entry): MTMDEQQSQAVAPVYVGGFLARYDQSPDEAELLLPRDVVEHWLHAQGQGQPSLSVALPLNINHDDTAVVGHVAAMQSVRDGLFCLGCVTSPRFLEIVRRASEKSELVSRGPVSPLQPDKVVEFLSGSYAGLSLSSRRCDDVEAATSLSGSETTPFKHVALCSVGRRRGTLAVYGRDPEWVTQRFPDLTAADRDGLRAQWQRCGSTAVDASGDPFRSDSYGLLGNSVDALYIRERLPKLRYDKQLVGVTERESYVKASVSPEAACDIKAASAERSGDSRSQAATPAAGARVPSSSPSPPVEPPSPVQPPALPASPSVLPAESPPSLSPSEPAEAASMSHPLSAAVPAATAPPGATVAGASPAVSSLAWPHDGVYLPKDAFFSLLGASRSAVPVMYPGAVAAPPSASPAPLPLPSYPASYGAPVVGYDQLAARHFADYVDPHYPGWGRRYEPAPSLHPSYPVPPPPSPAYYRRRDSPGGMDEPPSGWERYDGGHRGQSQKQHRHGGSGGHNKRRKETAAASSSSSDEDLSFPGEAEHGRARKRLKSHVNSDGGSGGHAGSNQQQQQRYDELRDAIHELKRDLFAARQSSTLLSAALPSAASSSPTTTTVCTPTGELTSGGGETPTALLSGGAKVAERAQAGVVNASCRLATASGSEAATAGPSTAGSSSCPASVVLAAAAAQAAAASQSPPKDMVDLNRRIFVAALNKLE
In words: Inhibitory activity against Human Cytomegalovirus (hCMV) protease. On the set-up: species or system Human betaherpesvirus 5.
`Cc1csc2nc(Cc3ccc(C(=O)c4ccc(NO)cc4)cc3)oc(=O)c12` showed a pIC50 of 7.85.

`Cc1csc2nc(Cc3cccc(NC(=O)c4cccc(NN)c4)c3)oc(=O)c12`: the pIC50 was 5.42.

`NO` [HYDROXYLAMMONIUM CHLORIDE]: the pIC50 is below 4.48.

On to `Cc1csc2nc(Cc3cccc(NC(=O)c4ccc(NO)cc4)c3)oc(=O)c12`, for which the pIC50 was 7.21.

`Cc1csc2nc(Cc3cccc(NC(=O)c4cccc(NO)c4)c3)oc(=O)c12` had a pIC50 of 7.35.

Regarding `Cc1ccc(C(=O)c2cccc(NO)c2)cc1`, the pIC50 was 5.43.

The compound `Cc1csc2nc(Cc3ccc(C(=O)c4ccccc4)cc3)oc(=O)c12` showed a pIC50 of 6.10.

In the case of `Cc1csc2nc(Cc3ccc(C(=O)c4cccc(N)c4)cc3)oc(=O)c12`, the pIC50 was 6.00. This pIC50 and that of the compound before are within 0.2 log units of each other.

In turn, `Cc1csc2nc(Cc3ccc(C(=O)c4cccc(/N=[N+](\[O-])c5cccc(C(=O)c6ccc(Cc7nc8scc(C)c8c(=O)o7)cc6)c5)c4)cc3)oc(=O)c12` showed a pIC50 below 4.48.

The compound `Cc1csc2nc(Cc3cccc(NC(=O)c4ccc(NN)cc4)c3)oc(=O)c12` showed a pIC50 of 5.62.

The compound `Cc1csc2nc(Cc3ccc(C(=O)c4cccc(NO)c4)cc3)oc(=O)c12` gave a pIC50 of 7.72.

`Cc1csc2nc(Cc3cccc(NC(=O)c4ccccc4)c3)oc(=O)c12` showed a pIC50 of 5.82. Compared with the last compound, the pIC50 is 1.90 log units lower.

`CONc1cccc(C(=O)Nc2cccc(Cc3nc4scc(C)c4c(=O)o3)c2)c1` showed a pIC50 of 5.66.

The compound `CC(=O)c1cccc(NO)c1` showed a pIC50 of 4.96. Compared with the last compound, the pIC50 is 0.70 log units lower.

`Cc1csc2nc(Cc3ccc(C(=O)c4cccc([N+](=O)[O-])c4)cc3)oc(=O)c12` showed a pIC50 of 5.46.

In turn, `Cc1csc2nc(Cc3ccc(C(=O)c4ccccc4)cc3)[nH]c(=O)c12` showed a pIC50 below 4.48.

`ONc1ccccc1` had a negative-log IC50 (pIC50) of 5.05.

For the compound `CC(=O)ON(C(C)=O)c1cccc(C(=O)c2ccc(Cc3nc4scc(C)c4c(=O)o3)cc2)c1`, the pIC50 was 5.85.

`Cc1csc2nc(Cc3ccc(C(=O)c4ccc(CO)cc4)cc3)oc(=O)c12`: the pIC50 is 6.03.

In the case of `Cc1csc2nc(Cc3ccc(C(=O)c4cccc(N=O)c4)cc3)oc(=O)c12`, the pIC50 was 7.26. This pIC50 is 1.23 log units higher than that of the compound before.

As for `Cc1csc2nc(Cc3ccc(C(=O)c4cccc(CO)c4)cc3)oc(=O)c12`, the pIC50 was 5.96.

In turn, `Cc1csc2nc(Cc3ccc(C(=O)c4cccc(NO)c4)cc3)[nH]c(=O)c12` gave a pIC50 of 5.70.

Compound `CC(=O)N(O)c1cccc(C(=O)c2ccc(Cc3nc4scc(C)c4c(=O)o3)cc2)c1` had a pIC50 of 5.96.

The term pIC50 denotes the negative decadic logarithm of the IC50, by convention in mol/L.
